Measured values as given in article PMC11527646, “Pharmacological blockade of the mast cell MRGPRX2 receptor supports investigation of its relevance in skin disorders” (Frontiers in Immunology, 2024).
“Also recorded” adds a separate entry of the source. Where two headings read alike, the source gives them in different places. Each block holds one molecule with its values, some of them ahead of it. Bridge positions count the residues as written; N and C are the ends. Peptide text beside a SMILES is read from it.

Key:
MRGPRX2 = biological target: T1, MRGPRX2 (Homo sapiens, UniProt Q96LB1); test: LAD2 mast cell degranulation (β-hexosaminidase release), MRGPRX2 ligand-mediated; type: cell-based; parameters: human mast cells expressing endogenous MRGPRX2; endogenous in cells; […]
T1 sequence (Q96LB1 1-330): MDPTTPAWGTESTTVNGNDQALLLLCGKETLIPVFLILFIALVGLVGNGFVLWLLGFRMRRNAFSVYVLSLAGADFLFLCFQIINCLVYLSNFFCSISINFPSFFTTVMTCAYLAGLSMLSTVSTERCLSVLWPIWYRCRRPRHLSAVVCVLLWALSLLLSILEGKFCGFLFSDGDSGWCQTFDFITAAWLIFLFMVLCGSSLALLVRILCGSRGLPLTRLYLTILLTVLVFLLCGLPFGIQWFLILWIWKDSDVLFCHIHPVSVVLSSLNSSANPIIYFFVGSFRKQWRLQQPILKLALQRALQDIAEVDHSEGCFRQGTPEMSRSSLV
Procedure: Two different in vitro human mast cell systems were studied: (a) a human mast cell line, LAD2, established from a patient with mast cell sarcoma; and (b) mast cells freshly isolated from human skin. MRGPRX2 antagonist IC50 values were determined in the LAD2 mast cell degranulation assay using approximately EC80 concentrations for five different MRGPRX2 activating ligands (see Supplementary Figure 1 ).

human basophils = test: Histamine release from human blood basophils (buffy coats); type: cell-based; settings: 0.2–25 μM; non-allergic or allergic donors, with or without anti-IgE pre-incubation
Procedure: Blood bank buffy coats were screened for reactions against 10 inhalant allergens (grass, birch, mugwort, cat, dog, horse, Dermatophagoides pteronyssinus, Dermatophagoides farinae, Cladosporium, and Alternaria) and 10 food allergens (milk, egg, wheat, peanut, hazelnut, kiwi, cod fish, shrimp, celeriac, and soy). Five buffy coats with histamine release > 30 ng/mL to any of the tested allergens and with a histamine release to blood with anti-IgE > 30 ng/mL were included as allergic donors. Further, five buffy coats with histamine release < 10 ng/mL to any of the above-mentioned allergens and with a histamine release to blood with anti-IgE > 25 ng/mL were included as non-allergic donors.
The buffy coats were pre-incubated for 30 min at 37°C with either buffer or anti-human IgE in concentrations ranging from 0.04 µg/mL to 5 µg/mL. […] Following pre-incubation with anti-IgE and incubation with SP, released histamine was quantified as previously described ([14]). Briefly, histamine was bound to a glass fiber matrix at the bottom of microtiter plates and after a series of wash steps coupled to ortho-phtaldialdehyde before being detected fluorometrically in the Histareader™ 501 (RefLab ApS, Copenhagen, Denmark). […]
Anti-IgE pre-stimulation. Histamine release measured in blood samples pre-incubated with various concentrations of anti-lgE for 30 mins, followed by 1 hour incubation with various […]

- EC50 (MRGPRX2; representative dose response curves, read-out: LAD2 mast cell degranulation agonist EC50): 67 nM
Compound: C[C@@H](O)[C@@H]1NC(=O)[C@H](CCCCN)NC(=O)[C@H](Cc2c[nH]c3ccccc23)NC(=O)[C@H](Cc2ccccc2)NC(=O)[C@H](Cc2ccccc2)NC(=O)[C@H](CC(N)=O)NC(=O)[C@H](CCCCN)NC(=O)[C@@H](NC(=O)[C@@H]2CCCN2)CSSC[C@@H](C(=O)N[C@@H](CCCCN)C(=O)O)NC(=O)[C@H](CO)NC(=O)[C@H](CO)NC(=O)[C@H](Cc2ccccc2)NC1=O [Cortistatin 14, reference compound] (H-PCKNFFWKTFSSCK-OH; disulfide 2-13; N-terminus and C-terminus assumed)

Compound: CSCC[C@H](NC(=O)[C@H](CC(C)C)NC(=O)CNC(=O)[C@H](Cc1ccccc1)NC(=O)[C@H](Cc1ccccc1)NC(=O)[C@H](CCC(N)=O)NC(=O)[C@H](CCC(N)=O)NC(=O)[C@@H]1CCCN1C(=O)[C@H](CCCCN)NC(=O)[C@@H]1CCCN1C(=O)[C@@H](N)CCCN=C(N)N)C(N)=O [Substance P]
- Histamine release response of basophils (human basophils): no SP response could be detected

Compound: COc1ccc(-n2nnnc2C(F)(F)F)cc1CN[C@H]1CCCN[C@H]1c1ccccc1 [vofopitant, reference compound]
- Influence on Substance P-mediated mast cell degranulation (MRGPRX2; Substance P 1 μM, β-hexosaminidase release, n = 8): has no influence; also recorded: unaltered

Compound: CC[C@H](C)[C@H](NC(=O)CNC(=O)[C@H](CC(=O)O)NC(=O)[C@H](CO)NC(=O)[C@@H](N)Cc1cnc[nH]1)C(=O)N[C@@H](Cc1ccccc1)C(=O)N[C@H](C(=O)N[C@@H](CC(=O)O)C(=O)N[C@@H](CO)C(=O)N[C@@H](Cc1ccc(O)cc1)C(=O)N[C@@H](CO)C(=O)N[C@@H](CCCNC(=N)N)C(=O)N[C@@H](Cc1ccc(O)cc1)C(=O)N[C@@H](CCCNC(=N)N)C(=O)N[C@@H](CCCCN)C(=O)N[C@@H](CCC(N)=O)C(=O)N[C@@H](CCSC)C(=O)N[C@@H](C)C(=O)N[C@H](C(=O)N[C@@H](CCCCN)C(=O)N[C@@H](CCCCN)C(=O)N[C@@H](Cc1ccc(O)cc1)C(=O)N[C@@H](CC(C)C)C(=O)N[C@@H](C)C(=O)N[C@@H](C)C(=O)N[C@H](C(=O)N[C@@H](CC(C)C)C(N)=O)C(C)C)C(C)C)[C@@H](C)O [PACAP-27, reference compound]
- EC50 (MRGPRX2): 218 nM
